Measured values: PubChem BioAssay AID463206 (Broad Institute, 2010)
Active and inactive are the calls of the source.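 Rule for the calls: active = caspase luminescence falls with dose and the half-maximal concentration AC50 from the fitted curve is at or below a set limit; inconclusive = flat fit at 30 to 70% signal loss, or invalid fit; inactive = AC50 above the limit, or signal rises instead.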

tested on: INS-1E cytokine-induced caspase-3/7, Caspase-Glo luminescence, 48 h; experiment: inhibitors of cytokine-induced caspase-3/7 activity, dose response, orthogonal assay for beta-cell apoptosis protection project, INS-1E rat cells, luminescence (AID 463206)

SMILES | AC50
C1=C(CCNc2ncnc3c2[nH]c2ccccc23)CCCC1 | > 26 µM (inactive)
Cc1cccnc1CCNCc1c(C(=O)N2C[C@@H](C)O[C@@H](C)C2)nc2ccc(Cl)cn12 | > 26 µM (inactive)
CCCCCCCNC1=CC(=O)CC(c2ccccc2)C1 (centres undefined) | > 12 µM (inactive)
CC(=O)c1c(C)[nH]c(C(=O)OCC(=O)Nc2ccc(C)cc2[N+](=O)[O-])c1C | > 26 µM (inactive)
C=CCN(CC=C)Cc1c[nH]c2ccccc12 | 26.3 µM
O=[N+]([O-])c1ccc(NC(=S)NCCc2ccc(Cl)cc2)cc1 | > 26 µM (inactive)
O=C(CCC(=O)Nc1ccc(Br)cc1)N/N=C/c1ccccc1O | > 26 µM (inactive)
Clc1ccc2c(N/N=C/c3cccc(Br)c3)ccnc2c1 | > 26 µM (inactive)
CCCCNc1cc(C)nc(NCc2ccccc2)n1 | > 26 µM (inactive)
Oc1ccc2ccccc2c1/C=N/Nc1nnc(-c2ncc[nH]2)c2ccccc12 | > 26 µM (inactive)
O=C([O-])c1cc(-c2ccccc2)cc(-c2ccccc2)[n+]1Cc1ccccc1 | > 26 µM (inactive)
Cc1ccc(NC(=O)CCC(=O)N/N=C/c2ccc([N+](=O)[O-])o2)cc1C | > 26 µM (inactive)
CC(C)n1cnc2c(NCc3ccccc3)cc(N[C@H](C)CO)cc21 | > 26 µM (inactive)
COc1cccc(/C=N/Nc2snc(SC)c2C#N)c1O | > 26 µM (inactive)
CCC(CC)C(=O)c1c[nH]c(C(=O)NCc2ccccn2)c1 | > 26 µM (inactive)
COc1ccc(C)cc1Nc1n[n+](-c2ccccc2)c(-c2ccc(OC)c(OC)c2OC)s1 | > 26 µM (inactive)
Cc1cccc(NC(=O)/C=C/c2ccc([N+](=O)[O-])s2)c1 | 2.71 µM
Cc1[nH]n(-c2ccc(Br)cc2)c(=O)c1/C=N/NC(=O)c1ccccc1 | > 26 µM (inactive)
Cc1cc(C)cc(NC(=O)/C(C#N)=C/c2cn(CC(=O)NCc3ccco3)c3ccccc23)c1 | > 26 µM (inactive)
COc1ccc(-c2cc(-c3nc4ccccn4c3NCc3ccccc3)ccc2OC)cc1 | > 26 µM (inactive)
O=C1C=C(Nc2ccc(O)cc2)C(=O)c2ccccc21 | > 26 µM (inactive)
O=C(Nc1nc(-c2ccccn2)cs1)c1ccc(Br)s1 | > 26 µM (inactive)
C#CCOCCOCCOCCNc1nc(N2CCN(C(=O)CCCCCCCCCCNC(=O)[C@H](CCCCN)n3cc(C)nn3)CC2)nc(N2CCN(C(=O)CCCCCCCCCCNC(=O)[C@H](CCCN=C(N)N)n3cc(C[C@@H](C)CC)nn3)CC2)n1 | > 26 µM (inactive)

SMILES | AC50
O=c1c2ccccc2nc(COc2ccccc2)n1/N=C/c1ccc(O)cc1O | > 26 µM (inactive)
O=C(N/N=C/c1cc(Cl)ccc1O)C(=O)Nc1ccccc1OC(F)(F)C(F)F | > 26 µM (inactive)
CC#CC[N+](C)(C)CCCCCCCC | > 26 µM (inactive)
S=C(NCc1ccc(Cl)cc1)NC12CC3CC(CC(C3)C1)C2 | > 26 µM (inactive)
CCc1ccc(-n2cc(-c3ccc(F)cc3)[n+]3c2SCCC3)cc1 | > 26 µM (inactive)
OCCCNc1c2ccccc2nc2ccccc12 | 7.37 µM
O=C1C(Cl)=C(NCc2cccnc2)C(=O)c2ccccc21 | > 26 µM (inactive)
C#CCOCCOCCOCCNc1nc(N2CCN(C(=O)CCCCCCCCCCNC(=O)[C@H](CCCCN)n3cc(C[C@@H](C)CC)nn3)CC2)nc(N2CCN(C(=O)CCCCCCCCCCNC(=O)[C@@H]([C@H](C)O)n3cc(C)nn3)CC2)n1 | > 26 µM (inactive)
CCN(CC)c1ccc(/C=N/NC(=O)c2cnccn2)c(O)c1 | > 26 µM (inactive)
CCN(CC)c1ccc(/C=N/NC(=S)NCc2ccccc2)c(O)c1 | > 26 µM (inactive)
N/C(=N\OC(=O)c1cccc(Cn2cc(C(F)(F)F)ccc2=O)c1)c1ccc(Cl)cc1 | > 26 µM (inactive)
Cc1cccc(OCc2n(CC(=O)OC3CC(C)CCC3C(C)C)c3ccccc3[n+]2C)c1 (centres undefined) | > 26 µM (inactive)
O=S(=O)(c1ccc2nc(Nc3ccccc3)ccc2c1)N1CCCCC1 | > 26 µM (inactive)
Cc1cc(C)c(C)c(S(=O)(=O)N2CCN(c3ncnc4ccccc34)CC2)c1C | > 26 µM (inactive)
C#CCn1c(=NC(=O)c2ccc(S(=O)(=O)N3CCc4ccccc4C3)cc2)sc2cc(S(N)(=O)=O)ccc21 | > 26 µM (inactive)
Cc1ccc(C2(c3ccc(C)cc3)CC2C(=O)Nc2ccc([N+](=O)[O-])cc2O)cc1 (centres undefined) | > 26 µM (inactive)
CC1C/C(=C/c2ccncc2)C(=O)/C(=C/c2ccncc2)C1 (centres undefined) | > 26 µM (inactive)
COc1cccc(/C=N/Nc2nc(Nc3ccccc3)nc(-n3nc(C)cc3C)n2)c1O | > 26 µM (inactive)
Cc1ccc(S(=O)(=O)Nc2ccc(C(OC(=O)c3ccccc3[N+](=O)[O-])(C(F)(F)F)C(F)(F)F)cc2)cc1 | > 26 µM (inactive)
CC(=O)N(Cc1ccc(F)cc1)C1=C(NCCc2ccccc2)C(=O)c2ccccc2C1=O | > 26 µM (inactive)
COc1ccc(Cc2nnc(N/N=C/c3ccccc3O)[nH]c2=O)cc1OC | > 26 µM (inactive)
COc1ccccc1-n1c(-c2ccccc2)c[n+]2c1CCc1ccccc1-2 | > 26 µM (inactive)
OC(CNCCC1C=Nc2ccccc21)Cn1c2ccc(Cl)cc2c2cc(Cl)ccc21 (centres undefined) | > 26 µM (inactive)

SMILES | AC50
c1ccc2c(c1)OCC(CNc1ncnc3sccc13)O2 (centres undefined) | > 26 µM (inactive)
CCN1/C(=C/C=C/c2oc3ccc(-c4ccccc4)cc3[n+]2CC)Oc2ccc(-c3ccccc3)cc21 | > 26 µM (inactive)
COc1cccc(F)c1C(C[N+](=O)[O-])c1c(N)n(C)c(=O)n(C)c1=O (centres undefined) | > 26 µM (inactive)
O=C(N/N=C/c1cc(Br)cc(Cl)c1O)c1ccc2c(c1)OCO2 | > 26 µM (inactive)
CCCCc1ccc(N/C(N)=N/c2nc(C)cc(C)n2)cc1 | > 26 µM (inactive)
O=C(NCc1ccncc1)c1cc(-c2ccc(Cl)cc2)oc1C(F)(F)F | > 12 µM (inactive)
Cc1cc2nc(-c3ccc[nH]c3=O)[nH]c2cc1C | > 26 µM (inactive)
COc1ccc(NS(=O)(=O)c2ccc(-c3cnc(C4CC4)o3)cc2)cc1OC | > 26 µM (inactive)
Oc1ccc(-c2n[nH]c(C(F)(F)F)c2-c2ccccc2)c(O)c1 | > 26 µM (inactive)
Cc1cccc(/C=C/C(=O)c2ccc([N+](=O)[O-])o2)c1 | > 26 µM (inactive)
CC(=O)OC1COC(OC2C(O)C(C)OC(OC3C(OC4CCC5(C)C(CCC6(C)C5CC=C5C7CC(C)(C)CCC7(C(=O)O)CCC56C)C4(C)CO)OCC(O)C3O)C2O)C(O)C1OC(C)=O (centres undefined) | > 26 µM (inactive)
COc1ccccc1NC(=O)CN(c1ccc(C23CC4CC(CC(C4)C2)C3)cc1)S(C)(=O)=O | > 26 µM (inactive)
CN(C)c1ccc(/C=C(\C#N)C(=O)OCC(=O)N(C)C2CCS(=O)(=O)C2)cc1 (centres undefined) | > 26 µM (inactive)
O=C(Nc1ncnc2c1C(c1ccccc1)c1c(ccc3ccccc13)O2)c1ccccc1 (centres undefined) | > 26 µM (inactive)
Cn1nccc1C(=O)NC1CCCc2c1cnn2-c1ccccc1F (centres undefined) | > 26 µM (inactive)
COc1ccc(C(=O)N2CCN(c3ccc([N+](=O)[O-])c(NCCc4ccc(OC)c(OC)c4)c3)CC2)cc1 | > 26 µM (inactive)
CC1=[N+](C)c2ccc3ccccc3c2C1(C)C | > 26 µM (inactive)
c1ccc(-c2nnc3sc(-c4csc5c4CCCC5)nn23)cc1 | > 26 µM (inactive)
CCN1CCN(Cc2ccc(NC(=O)c3ccc(C)c(NC(=O)c4c[nH]c5cc(C(F)(F)F)ccc5c4=O)c3)cc2C(F)(F)F)CC1 | > 26 µM (inactive)
Cc1ccc(C2C(C=Nc3c(C)n(C)n(-c4ccccc4)c3=O)=C(c3ccccc3)Oc3ccccc32)cc1 (centres undefined) | > 26 µM (inactive)
O=C(Nc1nc2ccc(F)cc2s1)c1ccccn1 | > 26 µM (inactive)
c1ccc(CSc2ccc(-c3ccccn3)nn2)cc1 | > 26 µM (inactive)
Cc1ccc(C)c(-c2csc(NC(=O)C3=COCCO3)n2)c1 | > 26 µM (inactive)

SMILES | AC50
O=C1C(Cl)=C(NCCN2CCCCC2)C(=O)c2ccccc21 | > 26 µM (inactive)
Cc1nc2c(-c3ccc(Cl)cc3)c(C)[nH]n2c(=O)c1Cc1ccccc1 | > 26 µM (inactive)
C/C(=N\NC(=O)c1cc(C)nc2ccccc12)c1ccccn1 | > 26 µM (inactive)
CN1/C(=C\C(=O)CN2C(=O)NC3(CCCCCC3)C2=O)C(C)(C)c2ccccc21 | > 12 µM (inactive)
C#CCOCCOCCOCCNc1nc(N2CCN(C(=O)CCCCCCCCCCNC(=O)[C@H]([C@@H](C)CC)n3cc(CCCCN=C(N)N)nn3)CC2)nc(N2CCN(C(=O)CCCCCCCCCCNC(=O)[C@H](CO)n3cc(CCCCCN)nn3)CC2)n1 | > 26 µM (inactive)
COc1ccc(/C=C/c2nc3ccccc3n2C)cc1 | > 26 µM (inactive)
Cc1ccc(NC2=C/C(=N/S(=O)(=O)c3cccs3)c3ccccc3C2=O)cc1C | > 26 µM (inactive)
O=C(Nc1nc(-c2ccccn2)cs1)c1ccccc1-n1cnnn1 | > 26 µM (inactive)
Cn1nc(C(C)(C)C)cc1C(=O)NCc1cc(F)cc2c1OCOC2 | > 26 µM (inactive)
CC(C)(C)c1ccc(/C=C(\c2nc3ccccc3[nH]2)S(=O)(=O)c2ccccc2)cc1 | > 26 µM (inactive)
CCn1c(SCC(=O)Nc2ccc(OC)cc2)nc2nc3c(cc2c1=O)CCCC3 | > 26 µM (inactive)
COc1ccc(C(C(=O)NC2CCCCC2)N(C(=O)CCl)c2cccc(Cl)c2)cc1 (centres undefined) | > 26 µM (inactive)
Cc1ccccc1C(=O)Nc1cccc(C(=O)N/N=C/c2cc(Cl)cc([N+](=O)[O-])c2O)c1 | > 26 µM (inactive)
Cc1ccc(-c2c[n+](Cc3ccc(Cl)cc3)c3n2CCC3)cc1 | > 26 µM (inactive)
CCOC(=O)c1cnc(-n2nc(C)cc2C)nc1Nc1ccc(O)cc1 | > 26 µM (inactive)
Cn1cc(C(=O)N/N=C/c2c(O)ccc3ccccc23)ccc1=O | > 26 µM (inactive)
O=C(N/N=C\c1cc(Cl)ccc1O)c1ccc(S(=O)(=O)N2CCCCC2)cc1 | > 26 µM (inactive)
O=C(NCc1cccnc1)/C(=C\c1ccc(-c2ccc(Cl)c(Cl)c2)o1)S(=O)(=O)c1ccccc1 | > 26 µM (inactive)
Cc1ccc(-c2cc(-c3ccc(C)cc3)[n+](-c3ccccc3)c(-c3ccc(C)cc3)c2)cc1 | > 26 µM (inactive)
O=C(N/N=C/c1sc2ccccc2c1O)c1cccc2ccccc12 | > 26 µM (inactive)
